These results are taken from US20110160123A1, “TARGETING THE EFFLUX SYSTEMS OF MYCOBACTERIUM TUBERCULOSIS” (THE UAB RESEARCH FOUNDATION, priority 2008, published 2011).

Each structure is given as a SMILES string. ≈ marks a conversion by molar mass, not a printed value. Where two headings read alike, the source gives them in different places.

The test system of one experiment is wild-type M. bovis BCG. Briefly: microbe, parasite or virus in culture. Type of experiment: cell-based. The conditions noted are these: for MIC: Mycobacterium tuberculosis variant bovis BCG, BCG, read-out: MIC WT.
The next experiment concerns M. smegmatis WT (SMR5). The experiment in a line: microbe, parasite or virus in culture. The class given is cell-based. The conditions noted are these: for MIC: Mycolicibacterium smegmatis.
For experiment [1], the system named is M. smegmatis ΔmspA mutant MN01. The settings on record: ΔmspA mutant compared with wild-type M. smegmatis; cited from earlier work.
In a further experiment the test system is M. tuberculosis. The experiment in a line: Minimal inhibitory concentration of copper on Hartmans de Bond medium. The class given is cell-based.
For experiment [2], the system named is M. smegmatis ms3747 mutant ML77. The class given is cell-based. The settings on record: ms3747 mutant versus wt M. smegmatis.
Another experiment has as its system E. coli. The conditions noted are these: cited from earlier work.
The subject of experiment [3] is M. smegmatis SMR5 with rv0194 expression vector pML655. The class given is cell-based.
The subject of experiment [4] is M. smegmatis SMR5 wt (pMS2) and rv0194-expressing strain (pML655). Type of experiment: cell-based.

For the molecule `CC1(C)S[C@@H]2[C@H](NC(=O)[C@H](N)c3ccccc3)C(=O)N2[C@H]1C(=O)O` [Ampicillin], the figures for the MIC in the experiment on wild-type M. bovis BCG and in the experiment on M. smegmatis WT (SMR5) (read-out: MIC WT) were 62.5 µg/mL (≈ 179 µM) and 125 µg/mL (≈ 358 µM), respectively. Besides, in experiment [1], the “increased resistance toward ampicillin” value is listed as 16 fold.

In the case of `O=C(N[C@H](CO)[C@H](O)c1ccc([N+](=O)[O-])cc1)C(Cl)Cl` [Chloramphenicol], the MIC with wild-type M. bovis BCG turned out to be 8 µg/mL (≈ 24.8 µM); in the experiment with M. smegmatis WT (SMR5) (read-out: MIC WT) it was 32 µg/mL (≈ 99 µM). As for `CC[C@H]1OC(=O)[C@H](C)[C@@H](O[C@H]2C[C@@](C)(OC)[C@@H](O)[C@H](C)O2)[C@H](C)[C@@H](O[C@@H]2O[C@H](C)C[C@H](N(C)C)[C@H]2O)[C@](C)(O)C[C@@H](C)C(=O)[C@H](C)[C@@H](O)[C@]1(C)O` [Erythromycin], in the experiment on M. smegmatis WT (SMR5) (read-out: MIC WT), the MIC worked out at 2.5 µg/mL (≈ 3.41 µM). With `CO[C@@H]1[C@@H](OC(N)=O)[C@@H](O)[C@H](Oc2ccc3c(O)c(NC(=O)c4ccc(O)c(CC=C(C)C)c4)c(=O)oc3c2C)OC1(C)C` [Novobiocin], the MIC with M. smegmatis WT (SMR5) (read-out: MIC WT) turned out to be 4 µg/mL (≈ 6.53 µM). Turning to `[H]/N=C(/N)N[C@H]1[C@H](O)[C@@H](O)[C@H](O[C@@H]2O[C@@H](C)[C@](O)(C=O)[C@H]2O[C@@H]2O[C@@H](CO)[C@H](O)[C@@H](O)[C@@H]2NC)[C@@H](N/C(N)=N\[H])[C@@H]1O` [Streptomycin], the MIC in the experiment on wild-type M. bovis BCG was 0.5 µg/mL (≈ 0.86 µM). Regarding `CN(C)[C@@H]1C(=O)C(C(N)=O)=C(O)[C@@]2(O)C(=O)C3=C(O)c4c(O)cccc4[C@@](C)(O)[C@H]3C[C@@H]12` [Tetracyclin], the “MIC WT” value in the experiment with wild-type M. bovis BCG turned out to be 2 µg/mL (≈ 4.5 µM); against M. smegmatis WT (SMR5), 0.3 µg/mL (≈ 0.675 µM). `CN[C@H](CC(C)C)C(=O)N[C@H]1C(=O)N[C@@H](CC(N)=O)C(=O)N[C@H]2C(=O)N[C@H]3C(=O)N[C@H](C(=O)N[C@H](C(=O)O)c4cc(O)cc(O)c4-c4cc3ccc4O)[C@H](O)c3ccc(c(Cl)c3)Oc3cc2cc(c3O[C@@H]2O[C@H](CO)[C@@H](O)[C@H](O)[C@H]2O[C@H]2C[C@](C)(N)[C@H](O)[C@H](C)O2)Oc2ccc(cc2Cl)[C@H]1O` [Vancomycin]: the MIC was determined as 5 µg/mL (≈ 3.45 µM) in the experiment with wild-type M. bovis BCG and 1.25 µg/mL (≈ 0.863 µM) in the experiment with M. smegmatis WT (SMR5) (read-out: MIC WT). For the molecule `[Cu]` [copper], the “minimal inhibitory concentration of copper” value in the experiment with M. tuberculosis is recorded as “less than 24 μM”; with E. coli it was “≈ 3 mM”. For the same molecule, the “copper concentration affecting growth, mutant relative to wt” value in experiment [2] was “four-fold lower”.

Turning to `CC[n+]1c(-c2ccccc2)c2cc(N)ccc2c2ccc(N)cc21` [ethidium bromide], the MIC in the experiment on M. smegmatis WT (SMR5) (read-out: MIC of ethidium bromide) turned out to be 1.25 µg/mL. On to `COC(=O)[C@H]1[C@H]2C[C@@H]3c4[nH]c5cc(OC)ccc5c4CCN3C[C@H]2C[C@@H](OC(=O)c2cc(OC)c(OC)c(OC)c2)[C@@H]1OC` [reserpine], for which, in experiment [3], the “accumulation of ethidium bromide after addition of reserpine” value was “quickly reached levels observed for wt M. smegmatis”. In addition, the “growth with reserpine in the presence of ethidium bromide” value in experiment [4] is “completely inhibited growth of both strains”.
